This is an account of results in patent US20260317384A1, “SMALL MOLECULE HUMANIN MIMETICS” (The Regents of the University Of California, priority 2023, published 2026).

In assay [1] the target is T1, gp130 receptor (Homo sapiens, UniProt P40189).
T1 construct: express more than 10 times more endogenous gp130; endogenous in cells; host or cells: U87-MG
T1 sequence (P40189 23-918): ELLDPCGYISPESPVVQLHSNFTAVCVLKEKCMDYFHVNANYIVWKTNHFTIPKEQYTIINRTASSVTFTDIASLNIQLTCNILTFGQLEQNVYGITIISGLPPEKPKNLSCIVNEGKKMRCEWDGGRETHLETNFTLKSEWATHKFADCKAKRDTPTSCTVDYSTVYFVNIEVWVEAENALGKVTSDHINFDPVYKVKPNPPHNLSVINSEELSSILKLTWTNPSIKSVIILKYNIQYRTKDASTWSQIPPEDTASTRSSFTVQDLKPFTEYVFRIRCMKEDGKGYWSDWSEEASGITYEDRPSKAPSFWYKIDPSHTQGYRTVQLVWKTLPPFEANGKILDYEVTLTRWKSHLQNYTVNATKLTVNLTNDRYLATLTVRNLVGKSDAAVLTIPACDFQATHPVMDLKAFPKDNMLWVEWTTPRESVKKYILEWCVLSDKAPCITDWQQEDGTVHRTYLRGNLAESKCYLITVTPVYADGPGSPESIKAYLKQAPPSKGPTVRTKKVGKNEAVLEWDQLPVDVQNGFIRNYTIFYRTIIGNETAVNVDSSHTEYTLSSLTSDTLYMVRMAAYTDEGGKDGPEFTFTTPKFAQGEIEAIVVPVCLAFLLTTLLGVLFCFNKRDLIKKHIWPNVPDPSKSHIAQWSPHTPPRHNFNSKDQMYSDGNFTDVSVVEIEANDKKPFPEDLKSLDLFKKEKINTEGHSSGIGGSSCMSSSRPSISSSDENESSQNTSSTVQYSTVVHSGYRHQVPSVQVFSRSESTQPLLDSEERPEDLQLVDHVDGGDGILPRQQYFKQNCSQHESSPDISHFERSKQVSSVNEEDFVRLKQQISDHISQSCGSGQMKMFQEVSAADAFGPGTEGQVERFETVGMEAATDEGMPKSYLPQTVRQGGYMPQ
Kind of assay: p-gp130 (p-Tyr) ELISA, HTS validation and dose response in U87-MG cells. In kind it is cell-based. The conditions noted are these: for p-gp130 (p-Tyr) dose response activity: dose response of validated hits, FIG. 4; for activation of gp130 receptor / increase of p-gp130: validation testing, truncated humanin peptides. From the text:
(§1) An ELISA assay for the evaluation of the p-gp130 levels was developed. This was a commercial ELISA—DuoSet ELISA from R&D systems (cat #DYC3407-2) and detected the tyrosine phosphorylation of gp130. […] In addition, a commercially available p-AKT (1,2,3) AlphaLISA kit was used (PE cat #ALSU-PAKT-B-HV) for the HTS assay.
(§2) Small molecules that act as HN mimetics represent a new class of AD therapeutics. Through screening, validated hits that increase both p-gp-130 and p-Akt levels were identified. Human glioblastoma cells were used, U87-MG. Several hits that enhance p-gp 130 were identified as well as several compounds that can increase p-AKT (FIG. 3).
(§3) Into a 96 well plate was added 99 μL of warm DMEM/F12 without FBS, then 1 uL of compounds at 1 mM were loaded into the96 well plate. These generated the compounds at 2×. Into a 96 well plate was added IL6/IL6R solution to achieve 6.6×10−4 mg/mL and 3.3×10−4 mg/mL respectively, this is 2× concentration. For this, primary EL6 stock (0.1 mg/mL) was diluted150-fold and IL6R stock (0.1 mg/mL) 300-fold to treat cells with final concentration of 6.6×10−4 mg/mL and 3.3×10−4 mg/mL respectively. 10 ml of Sample Diluent Concentrate 2 (2X)(Part #895891/DYC002)+10 ml ddH2O+200 ul of 100 mM activated Na3VO4 (aliquots at −20C)+20 ul of 10 mg/ml aprotinin (stock at 4C)+20 ul of 10 mg/ml leupeptin (aliquots at −20C)+200 ul PIC-protected from light. Lysis buffer containing 1% NP-40 Alternative, 20 mM Tris (pH 8.0), 137 mM NaCl, 10% glycerol, 2 mM EDTA, 1 mM activated sodium orthovanadate, 10 μg/mL Aprotinin, 10 μg/mL Leupeptin. Placed on ice. Removed the media from the cell plate and add 50 μL of DMEM/F12 without FBS. Then, added 50 μL of the compounds or positive control IL6/IL6R at 2× into the cell plate using the multichannel (FIG. 7). Allowed the treatment to take place for 10 minutes in the incubator at 37° C. and 5% CO2. Cells were lysed with 130 μL of ice-cold lysis buffer. Placed cells on ice for 15 min, then in the −80° C. overnight. Next, we prepared the ELISA plate by warming coating buffer to RT. 12 strips were coated with capture antibody. For this: 121 μL of 180 μg/mL of capture antibody (R&D DYC3407-2) was added into 21.48 mL of coating buffer. 100 μL of this solution was added to each well, covered with a lead and incubated at RT overnight and then conducted the ELISA assay using the manufacture outlined protocol. The cell lysate from the HTS was prepared using the AlphaLISA buffer to measure levels of p-AKT after compound treatment.
Background: In an ELISA, binding on a coated surface is turned into a signal by an enzyme label.

Assay [2] deals with p-gp130 and p-Akt. Kind of assay: HN mimetic activity (p-gp130 and p-Akt). The class given is cell-based, human.
Source text: as §1, §2
as §3, with “For this: 121 μL of 180 μg/mL of capture antibody (R&D DYC3407-2) was added into 21.48 mL of coating buffer. 100 μL of this solution was added to each well, covered with a lead and incubated at RT overnight and then conducted the ELISA assay using the manufacture outlined protocol. The cell lysate from the HTS was prepared using the AlphaLISA buffer to measure levels of p-AKT after compound treatment.” left out

Assay [3] deals with p-AKT. Kind of assay: p-AKT AlphaLISA in U87-MG cells. In kind it is cell-based, human. Also on record: dose or concentration left out as unconfirmed. The conditions noted are these: FIG. 2D.
Source text: as §1, §2
Into a 96 well plate was added 99 μL of warm DMEM/F12 without FBS, then 1 uL of compounds at 1 mM were loaded into the96 well plate. These generated the compounds at 2×. Into a 96 well plate was added IL6/IL6R solution to achieve 6.6×10−4 mg/mL and 3.3×10−4 mg/mL respectively, this is 2× concentration. For this, primary EL6 stock (0.1 mg/mL) was diluted150-fold and IL6R stock (0.1 mg/mL) 300-fold to treat cells with final concentration of 6.6×10−4 mg/mL and 3.3×10−4 mg/mL respectively. 10 ml of Sample Diluent Concentrate 2 (2X)(Part #895891/DYC002)+10 ml ddH2O+200 ul of 100 mM activated Na3VO4 (aliquots at −20C)+20 ul of 10 mg/ml aprotinin (stock at 4C)+20 ul of 10 mg/ml leupeptin (aliquots at −20C)+200 ul PIC-protected from light. […]
On the technique in general: Bead proximity is the source of the signal in Alpha formats.

Assay [4] relates to p-gp130. Kind of assay: p-gp130 AlphaLISA in U87-MG cells. The class given is cell-based, human. The conditions noted are these: 30 μM for 3 hours, FIG. 2D. The method, then:
FIG. 2. Development of p-gp 130 and gp130 AlphaLISA assays (A) Evaluation of p-gp 130 and gp 130 levels in U87-MG and SH-SY5Y cells after treatment with compound 2 by immunoblotting. (B) Principle of AlphaLISA assay. (C) Data of developed gp-130 AlphaLISA assay. Analyte is recombinant gp130 (EC domain).
Eight different antibodies (more than 20 combinations) were tested in a course of p-gp130 and gp130 AlphaLISA development. The principle of the AlphaLISA assay is depicted in FIG. 2B. […] Lysate buffer composition and treatment conditions have been optimized.

Peptide text beside a SMILES is read from it. * marks the point of attachment. Cbz = O=C(OCc1ccccc1)*

`CCC(=O)Nc1ccc2nc(C)n(-c3cccc(Cl)c3)c(=O)c2c1` [DDL-813]: in assay [1], the “p-gp130 (p-Tyr) dose response activity” value is “most potent showing submicromolar activity”.
With `CC[C@H](C)[C@H](NC(=O)[C@H](CCC(=O)O)NC(=O)CNC(=O)[C@@H](N)[C@@H](C)O)C(=O)O` [DDL-842, NH2-Thr-Gly-Glu-Ile-COOH] (H-TGEI-OH), the HN mimetic activity entry in assay [2] is “weak HN mimetic activity”.
For the compound `C#CCSC[C@H](N)C(=O)O` [S-propargyl-cyctein (SPRC), S-propargyl-cyctein], the “p-AKT AlphaLISA signal” value in assay [3] is recorded as “significant increaste”. In assay [4], the “p-gp130 AlphaLISA signal” value is “significant increaste”.
Turning to Cbz-Thr-Ser-NH2 [DDL-841], the HN mimetic activity result in assay [2] was “increased HN mimetic activity”.
Regarding “H-TGEINLPVK-OH [DDL-815, NH2-Thr-Gly-Glu-Ile-Asn-Leu-Pro-Val-Lys-COOH]”, the HN mimetic activity result in assay [2] is “weaker HN mimetic activity through lower p-gp130 and p-Akt”.
“H-TSEINLPVK-OH [DDL-814, NH2-Thr-Ser-Glu-Ile-Asn-Leu-Pro-Val-Lys-COOH]”: the “p-gp130 (p-Tyr) dose response activity” value in assay [1] is given as “good activity”. Besides, the “activation of gp130 receptor / increase of p-gp130” value in assay [1] is listed as “activate the gp130 receptor”; in assay [1] (listed as P3) it was “increased p-gp-130”.
